Data published in article PMC12040169 (PLOS Biology, 2025).

Test: in vitro
Details: human, hela cells, % viability

Structure (SMILES) | viability at 28.5 h, 10 µM (bulk resorufin, single well) [%] | viability at 28.5 h, 10 µM [%]
CCc1ccccc1N1C(=O)NC(=O)/C(=C\c2ccc(OCC(=O)O)c(Cl)c2)C1=O [CBK264107] | 95.2 | –
Cc1cc(C)cc(N(CC(=O)Nc2ccc(C)c(Cl)c2)S(=O)(=O)c2ccccc2)c1 [CBK264109] | – | 98.9
NC(=S)NC(=O)CN1C(=O)c2ccccc2C1=O [CBK264111] | – | 90.9
CC(Oc1ccc(Cl)cc1Cl)C(=O)Nc1ccc(O)cc1 (centres unmarked) [CBK264120] | – | 94.8
COc1ccc(C)cc1NC(=O)CN(c1ccc(F)cc1)S(=O)(=O)c1ccc(C)cc1 [CBK264122] | – | 101
Cc1ccc(S(=O)(=O)N(CC(=O)NCc2ccco2)c2cccc(C)c2)cc1 [CBK264125] | – | 93.9
Cc1ccc(S(=O)(=O)NCCSc2ccc(Cl)cc2)cc1[N+](=O)[O-] [CBK264126] | – | 96.8
CCOc1ccc(C(=O)NC(=S)Nc2ncccc2C)cc1[N+](=O)[O-] [CBK264128] | – | 98.3
CN(c1ccc(C(=O)Nc2ccc(S(=O)(=O)N3CCOCC3)cc2)cc1)S(=O)(=O)c1ccccc1 [CBK264129] | – | 96.7
COc1cc(S(=O)(=O)Oc2ccc(OCc3ccccc3)cc2)ccc1Cl [CBK264132] | – | 92.2
O=C(CCSc1ccc(Cl)cc1)Nc1ccc(S(=O)(=O)N2CCOCC2)cc1 [CBK264133] | – | 95.5
O=C(COc1ccc2ccccc2c1Br)Nc1ccc(S(=O)(=O)N2CCCC2)cc1 [CBK264135] | – | 99.3
COc1ccc(Cl)cc1N(CC(=O)Nc1ccccc1C(=O)O)S(C)(=O)=O [CBK264137] | – | 96.9
Cc1c(NC(=O)C2CN(S(=O)(=O)c3ccccc3)CCN2S(=O)(=O)c2ccccc2)c(=O)n(-c2ccccc2)n1C (centres unmarked) [CBK264138] | – | 98
Cc1ccc(S(=O)(=O)N(CC(=O)NCC2CCCO2)c2ccccc2)cc1 (centres unmarked) [CBK264140] | – | 90.9
COc1ccc(S(=O)(=O)N(CC(=O)Nc2ccc(F)cc2)c2ccccc2)cc1 [CBK264141] | – | 96.5
O=C(CSc1nsc(SCC(=O)c2ccccc2)n1)c1ccccc1 [CBK264142] | – | 120
Cc1ccc(C(=O)NCCNS(=O)(=O)c2ccccc2)cc1 [CBK264145] | – | 88.8
CC(C)(C)C1CCc2c(sc(NC(=O)CCC(=O)O)c2C(=O)Nc2ccccc2Cl)C1 (centres unmarked) [CBK264146] | – | 87.2
C/C=C/c1ccc(OCCCSc2ccc(Cl)cc2)c(OC)c1 [CBK264147] | – | 97.5
O=S(=O)(c1ccc2ccccc2c1)N1CCN(C2CCC(c3ccccc3)CC2)CC1 (centres unmarked) [CBK264152] | – | 103

Structure (SMILES) | viability at 28.5 h, 10 µM (bulk resorufin, single well) [%] | viability at 28.5 h, 10 µM [%]
O=C(COc1ccc(-c2ccccc2)cc1)N1CCN(S(=O)(=O)c2ccccc2[N+](=O)[O-])CC1 [CBK264154] | – | 93
O=C(O)CCC(C(=O)O)N1C(=O)c2cc(Cl)c(Cl)cc2C1=O (centres unmarked) [CBK264156] | – | 113
COc1ccc(N2CCN(c3nc(N4CCOCC4)nc(N4CCOCC4)n3)CC2)cc1 [CBK264166] | – | 100
CC(C)(C)c1ccc(C(=O)NC(=S)Nc2ccc(O)c(-c3nc4cc(Cl)ccc4o3)c2)cc1 [CBK264169] | – | 88
CC(=O)Nc1ccc(S(=O)(=O)N2CCN(Cc3ccccc3[N+](=O)[O-])CC2)cc1 [CBK264170] | – | 89.3
O=C(Nc1ccc(Cl)cc1)C(Cc1ccccc1)N1C(=O)c2cc(Cl)c(Cl)cc2C1=O (centres unmarked) [CBK264172] | – | 99.2
Cc1cccc(NC(S)=NCc2ccccn2)c1 [CBK264174] | – | 104
Cc1ccc(C(=O)COC(=O)C(Cc2ccccc2)N2C(=O)c3cc(Cl)c(Cl)cc3C2=O)cc1 (centres unmarked) [CBK264176] | – | 109
CCCCn1c(NCc2nc3ccccc3n2C)nc2ccccc21 [CBK264177] | – | 87.2
COc1ccc(C2NCCc3c2[nH]c2ccccc32)cc1CN1CCN(c2ccc(F)cc2)CC1 (centres unmarked) [CBK264178C] | – | 81.7
COc1cc(NC(=O)COc2ccc3ccccc3c2)c(C(=O)O)cc1OC [CBK264181] | – | 103
COc1cc(C(=O)N2CCN(S(=O)(=O)c3ccccc3[N+](=O)[O-])CC2)cc(OC)c1OC [CBK264182] | – | 105
N=C(N)NS(=O)(=O)c1ccc(N/C=C\C(=O)c2ccncc2)cc1 [CBK264185] | – | 91.8
O=S(=O)(c1ccc2ccccc2c1)N1CCN(C2CCCCCCC2)CC1 [CBK264186G] | – | 98.3
COc1ccc(OC)c(-c2nc(Nc3ccccc3Cl)sc2CC(=O)O)c1 [CBK264190] | – | 96.4
Cc1ccc(C)c(NC(=O)CN(Cc2ccc(Cl)c(Cl)c2)S(=O)(=O)c2ccccc2)c1 [CBK264191] | – | 107
CCOC(=O)C1CCCN(CCC(=O)Nc2ccccc2)C1 (centres unmarked) [CBK264192C] | – | 91.7
COc1cc(NC(=O)CCN2CCN(C)CC2)cc(OC)c1 [CBK264193] | – | 92.5
COc1ccccc1CC(=O)Nc1ccc(OCC(=O)O)cc1 [CBK264194] | – | 99.1
Cc1ccccc1OCCNS(=O)(=O)c1cccc([N+](=O)[O-])c1 [CBK264195] | – | 106
O=C(c1ccncc1)N1CCN(S(=O)(=O)c2ccccc2[N+](=O)[O-])CC1 [CBK264196] | – | 92.6

Structure (SMILES) | viability at 28.5 h, 10 µM (bulk resorufin, single well) [%] | viability at 28.5 h, 10 µM [%]
CN1CCN(CCC(=O)Nc2ccc3c(c2)CCC3)CC1 [CBK264197] | – | 95.3
Cc1ccc(S(=O)(=O)N(C)CC(=O)N(C)Cc2ccccc2)cc1 [CBK264201] | – | 95.5
O=C(CCN1CCc2ccccc2C1)Nc1ccccc1F [CBK264202] | – | 94.9
COc1ccc(CN2CCN(S(=O)(=O)c3ccc(Cl)cc3)CC2)cc1OC [CBK264204G] | – | 104
COc1cccc(NC(=O)CCN2CCN(CCO)CC2)c1 [CBK264207C] | – | 88.3
O=C(c1cccnc1)N1CCN(S(=O)(=O)c2ccc(F)cc2)CC1 [CBK264210] | – | 92.8
COc1ccc(OCC(=O)N2CCN(S(=O)(=O)c3ccccc3[N+](=O)[O-])CC2)cc1 [CBK264213] | – | 93.5
Cc1ccc(S(=O)(=O)Nc2ccccc2CNc2ccc(Br)cc2)cc1 [CBK264214] | – | 94.5
O=C(O)CCC(=O)Nc1ccc(OC(F)F)cc1 [CBK264222] | – | 99.8
Cc1c(C(=O)NC(=S)Nc2ccc(O)c(-c3nc4ccccc4s3)c2)oc2ccccc12 [CBK264223] | – | 93.2
COc1ccc(CN2CCN(Cc3ccco3)CC2)cc1OCc1ccccc1 [CBK264225] | – | 105
O=C(O)c1ccc(S(=O)(=O)c2ccc3c(c2)C(=O)N(NC(=O)c2ccc(O)cc2)C3=O)cc1 [CBK264229] | – | 102
CC(=O)Nc1ccc(S(=O)(=O)N2CCN(Cc3ccc([N+](=O)[O-])cc3)CC2)cc1 [CBK264231G] | – | 94.3
Cc1cc2nc(SCc3nc4ccccc4[nH]3)[nH]c2cc1C [CBK264233] | – | 97.4
O=[N+]([O-])c1ccccc1S(=O)(=O)N1CCN(S(=O)(=O)c2ccc(F)cc2)CC1 [CBK264236] | – | 92.7
c1ccc(CCCN2CCN(Cc3cccc4ccccc34)CC2)cc1 [CBK264237] | – | 103
COc1ccc(CC(=O)Nc2ccc(OCC(=O)O)cc2)cc1 [CBK264244] | – | 103
COc1ccc(N2CCN(c3nc(OC)nc(OC)n3)CC2)cc1 [CBK264245] | – | 100
COc1cc(/C=N/n2cnnc2)ccc1OCc1cccc(C(=O)O)c1 [CBK264249] | – | 108
O=C(O)COc1ccc(NC(=O)C(c2ccccc2)c2ccccc2)cc1 [CBK264250] | – | 99.6
CCOC(=O)C1CCN(CCC(=O)Nc2ccc(F)c(F)c2)CC1 [CBK264252] | – | 112

Structure (SMILES) | viability at 28.5 h, 10 µM (bulk resorufin, single well) [%] | viability at 28.5 h, 10 µM [%]
CC(C)CC(C(=O)Nc1ccc(Br)cc1)N1C(=O)c2ccccc2C1=O (centres unmarked) [CBK264253] | – | 94.1
COc1ccccc1N1CCN(CCC(=O)Nc2cccc(F)c2)CC1 [CBK264254C] | – | 92.8
CCc1ccc(-n2nc3ccc(NC(=S)NC(=O)c4cc5ccccc5o4)cc3n2)cc1 [CBK264258] | – | 101
O=C(O)COc1ccc(N2C(=O)c3ccc(Oc4cccc([N+](=O)[O-])c4)cc3C2=O)cc1 [CBK264259] | – | 107
O=C(CCN1CCN(Cc2ccccc2)CC1)Nc1ccc(F)cc1 [CBK264261] | – | 77
CCOC(=O)c1c(NC(=O)C2CC(Cl)=CCC2C(=O)O)sc2c1CCCCC2 (centres unmarked) [CBK264263] | – | 90.2
O=C1NC(=S)N(c2ccccc2)C(=O)/C1=C\c1ccc(OCc2ccccc2)c(C(=O)O)c1 [CBK264265] | 99.1 | –
C(=C\CSC1=NCCN1)/CSC1=NCCN1 [CBK264266] | – | 107
Cc1ccc(OCC(=O)N2CCN(S(=O)(=O)c3ccc([N+](=O)[O-])cc3)CC2)cc1 [CBK264267] | – | 103
COc1cc(CN2CCN(S(=O)(=O)c3ccc(F)cc3)CC2)cc(OC)c1O [CBK264269G] | – | 103
CCC(C)N1CCN(S(=O)(=O)c2ccccc2[N+](=O)[O-])CC1 (centres unmarked) [CBK264270G] | – | 97.2
CC(=O)Nc1ccc(S(=O)(=O)N2CCN(S(=O)(=O)c3ccc(C)cc3)CC2)cc1 [CBK264276] | – | 101
CC(C)COc1ccc(-c2nn(-c3ccccc3)cc2CSC(=N)N)cc1 [CBK264278C] | – | 0.298
CCS(=O)(=O)N1CCN(Cc2ccccc2OC)CC1 [CBK264280G] | – | 92.7
CC(OC(=O)c1ccc(O)cc1)C(=O)Nc1ccc(Cl)c(Cl)c1 (centres unmarked) [CBK264281] | – | 96.4
CCOC(=O)C1CCCN(CCC(=O)Nc2cc(C)ccc2C)C1 (centres unmarked) [CBK264287C] | – | 95.7
CCCS(=O)(=O)N1CCN(C(=O)COc2ccc3ccccc3c2)CC1 [CBK264290] | – | 95.4
COc1ccc(NC(=S)NCCCN(C)C)cc1 [CBK264292] | – | 96.2
Cc1cc(/C=C2\C(=O)NC(=O)N(C)C2=O)c(C)n1-c1ccc(Oc2ccc([N+](=O)[O-])cn2)cc1 [CBK264294] | 100 | –
O=C(/C=C/c1ccc(Cl)cc1Cl)NCCNc1c(Cl)cccc1[N+](=O)[O-] [CBK264295] | – | 110
